A short description of series [1]: Transport study across hiPSC-derived IEC layers. The note with it: human. How it is done: For differentiation into IECs, definitive endoderm cells were subsequently differentiated into intestinal stem cells by changing medium into DMEM/F12 containing 2% fetal bovine serum, 1% GlutaMAX (Gibco) and 250 ng/ml FGF2 (R&D Systems). After 4 days, cells were dissociated using Accutase and seeded onto polyester Transwell inserts (0.4 µm, Corning) coated with Growth Factor Reduced Matrigel #356231. Cells were cultured for 7 days in intestinal differentiation medium (DMEM/F-12 containing 2% fetal bovine serum, 1% non-essential amino acids (Gibco), 1 × B27 (Gibco), 1 × N2 (Gibco), 1% penicillin/streptomycin (Gibco) and 2 mM L-glutamine (Gibco)) supplemented with 20 ng/ml EGF (R&D Systems) and 30 µM Forskolin (Sigma). ROCK inhibitor, y-27632 (final concentration 10 µM; Stem Cell Technologies), was added during the initial 24 h after seeding to reduce cell death. The cells were subsequently cultured for 12 days in intestinal differentiation medium supplemented with 20 ng/ml EGF, 30 µM Forskolin, 5 µM 5-aza-2′-deoxycytidine (Sigma), 20 µM PD98059 (Stem Cell Technologies) and 0.5 µM A-83–01 (Sigma). The medium was refreshed every 2–3 days. Barrier integrity was determined by measuring apical to basolateral translocation of Lucifer yellow (see Supplementary Data for a detailed description).
(§1) Transport studies were performed in Caco-2 cells, hiPSC-derived IECs and EpiIntestinal microtissues. To that end, Caco-2 cell layers were differentiated for 21 days and hiPSCs were differentiated into IEC layers for 26 days, as described above. EpiIntestinal microtissues were subjected to transport studies 1 day after arrival. […] For all models, PFAS transport was assessed in apical to basolateral, and basolateral to apical direction using HBSS containing a mixture of PFASs containing 1 µM of each PFAS. See Supplementary Data for a detailed description of the method used for the transport studies of the model compounds and PFASs.
Prior to exposure to the transport study compounds, the cells were washed with transport medium (HBSS; Sigma). […] 100 µL aliquots were collected from the basolateral compartment and replaced with the same volume HBSS at settled time points (0, 15, 30 and 60 min). For basolateral to apical transport in the EpiIntestinal microtissues, 0.2 mL HBSS was added to the apical compartment and 0.5 mL HBSS containing a mixture of PFASs containing 1 µM of each PFAS, was added to the basolateral compartment. 100 µL aliquots were collected from the apical compartment and replaced with the same volume of HBSS at settled time points (0, 15, 30 and 60 min). For apical to basolateral transport across the Caco-2 cell layers and hiPSC-derived IEC layers, 1.2 mL HBSS was added to the basolateral compartment and 0.4 mL HBSS containing either model compounds (10 µM) or a mixture of PFASs containing 1 µM of each PFAS, was added to the apical compartment. 100 µL aliquots were collected from the basolateral compartment and replaced with the same volume of HBSS at settled time points (0, 7.5, 15, 30 and 60 min for the model compounds with both models and the PFASs with the hiPSC-derived IEC layers and 0, 15, 30 and 60 min for PFASs with the Caco-2 cell layers). For basolateral to apical transport, 0.4 mL HBSS was added to the apical compartment and 1.2 mL HBSS containing 10 µM of the model compounds or a mixture of PFASs containing 1 µM of each PFAS, was added to the basolateral compartment. 100 µL aliquots were collected from the apical compartment and replaced with the same volume of HBSS at settled time points (0, 7.5, 15, 30 and 60 min for the model compounds with both models and the PFASs with the hiPSC-derived IEC layers and 0, 15, 30 and 60 min for PFASs with the Caco-2 cell layers).

The conditions of series [2]: ref Ayehunie et al. (2005); cited from earlier work.
Series [3] deals with hiPSC-derived IEC layers. On the set-up: method as in Kabeya et al. ([2020]). The note with it: apical to basolateral, ref Kabeya et al. ([2020]); cited from earlier work.
Series [4] concerns Caco-2 model. The note with it: cited from earlier work.
A short description of series [5]: Transport study across Caco-2 cell layers. The note with it: human, Caco-2. On the procedure:
(§2) Human colorectal adenocarcinoma cells (Caco-2, HTB-37) were obtained from American Type Culture Collection (ATCC, Manassas, VA). Cells were cultured in a humidified incubator (37°C, 5% CO2) in Dulbecco’s modified Eagle’s medium (DMEM) supplemented with 10% heat-inactivated fetal bovine serum (Gibco, Thermo Fisher Scientific, Waltham, MA), 1% non-essential amino acids (Gibco) and 1% penicillin/streptomycin (Sigma). For experiments, Caco-2 cells below passage number 50 were used within 10 passages. They were harvested at 80% confluence using Trypsin/EDTA (0.25%/0.05%; PAN Biotech, Aidenbach, Germany) and seeded at a density of 4 × 10^5 cells/cm^2 into inserts with a polycarbonate membrane (0.4 µm pore, Corning, New York, NY). After 21 days of differentiation (using 500 µl cell culture medium in the apical and 1500 µl in the basolateral compartment), monolayer integrity was determined by measuring transepithelial electrical resistance (TEER) with a Millicell ERS Volt-Ohm meter (Millipore, Bedford, MA).
as §1
(§3) Prior to exposure to the transport study compounds, the cells were washed with transport medium (HBSS; Sigma). […] 100 µL aliquots were collected from the basolateral compartment and replaced with the same volume HBSS at settled time points (0, 15, 30 and 60 min). For basolateral to apical transport in the EpiIntestinal microtissues, 0.2 mL HBSS was added to the apical compartment and 0.5 mL HBSS containing a mixture of PFASs containing 1 µM of each PFAS, was added to the basolateral compartment. 100 µL aliquots were collected from the apical compartment and replaced with the same volume of HBSS at settled time points (0, 15, 30 and 60 min). For apical to basolateral transport across the Caco-2 cell layers and hiPSC-derived IEC layers, 1.2 mL HBSS was added to the basolateral compartment and 0.4 mL HBSS containing either model compounds (10 µM) or a mixture of PFASs containing 1 µM of each PFAS, was added to the apical compartment. 100 µL aliquots were collected from the basolateral compartment and replaced with the same volume of HBSS at settled time points (0, 7.5, 15, 30 and 60 min for the model compounds with both models and the PFASs with the hiPSC-derived IEC layers and 0, 15, 30 and 60 min for PFASs with the Caco-2 cell layers). For basolateral to apical transport, 0.4 mL HBSS was added to the apical compartment and 1.2 mL HBSS containing 10 µM of the model compounds or a mixture of PFASs containing 1 µM of each PFAS, was added to the basolateral compartment. 100 µL aliquots were collected from the apical compartment and replaced with the same volume of HBSS at settled time points (0, 7.5, 15, 30 and 60 min for the model compounds with both models and the PFASs with the hiPSC-derived IEC layers and 0, 15, 30 and 60 min for PFASs with the Caco-2 cell layers). After 60 minutes, all liquid was collected from the apical and basolateral compartment and the cells were lysed in 200 µL RIPA buffer (Thermo Fisher Scientific), and chemicals were quantified in the different compartments (apical, basolateral and cells) in order to calculate the mass balance.
(§4) The apparent permeability coefficient (Papp, cm/s) was calculated using the following equation: […]

Series [6] concerns EpiIntestinal model. The note with it: apical to basolateral, ref Ayehunie et al. (2005); cited from earlier work.
The nature of series [7]: Transport study across EpiIntestinal microtissues. The note with it: human. How it is done: The human EpiIntestinal small intestinal microtissues, consisting of epithelial cells and an underlying lamina propria containing intestinal fibroblasts, were obtained from MatTek Life Sciences (Ashland, USA). Cell culture inserts (8.8 mm ID) were placed in 12-well plates and cells were maintained in 100 µl maintenance medium (MatTek Life Sciences) in the apical compartment and 5 ml maintenance medium in the basolateral compartment upon arrival. The transport studies were performed 1 day after arrival.
as §1, §3, §4
where A is the surface area (cm^2), dQ is the amount of the compound transported (nmol) over the respective time interval dt (s) and C0 is the initial concentration in the donor compartment (µM).

Series [8] relates to Caco-2 cell layers. Put plainly: Transport study across Caco-2 cell layers. The note with it: Caco-2 model; PFAS mixture 1 µM each; not detected in the basolateral compartment. On the procedure:
as §2, §1, §3, §4

Series [9] concerns hiPSC-derived IEC layers. The series can be described thus: Barrier integrity: apical to basolateral translocation of lucifer yellow. Type of series: in vitro ADME, human. The note with it: terminally differentiated IECs; 500 µg/ml apical, 3 hours; data not shown. On the procedure: The medium was refreshed every 2–3 days.
To determine barrier integrity of the hiPSC-derived IEC layers, apical to basolateral translocation of lucifer yellow was measured. 500 µg/ml Lucifer yellow, in differentiation medium, containing EGF, Forskolin, 5-aza-2′-deoxycytidine, PD98059, A-83-01, was added to the apical compartment (400 µl/insert) and incubated at 37 °C for 3 hours. 50 µl medium was collected from the basolateral compartment at 30 min intervals. The fluorescence intensity was measured at 485 nm excitation and 530 nm emission wavelength using a microplate reader (Synergy HT, BioTek, Winooski, VT).

Like-named read-outs stand apart in the source and are kept apart here. Marks after values point to notes of the source that are not given here.

Data on four compounds can be found in paper PMC11489206, “Transport of perfluoroalkyl substances across human induced pluripotent stem cell-derived intestinal epithelial cells in comparison with primary human intestinal epithelial cells and Caco-2 cells” (Archives of Toxicology, 2024).

One may read the Papp A→B as how fast a substance crosses the layer from the apical side. Low readings indicate poor permeation, high ones ready permeation. Usually Papp B→A stands for how fast a substance crosses the layer from the basolateral side. As usually defined, the efflux ratio is the permeability from basolateral to apical divided by that in the opposite direction, in the common usage. On to `CCCC(=O)Nc1ccc(OCC(O)CNC(C)C)c(C(C)=O)c1` (centres unmarked) [Acebutolol, acebutolol], for which the Papp A→B at 60 min, 10 µM in series [1] was 1.95 ± 0.02 ×10⁻⁶ cm/s; in series [5], 0.42 ± 0.03 ×10⁻⁶ cm/s. In addition, the basolateral-to-apical permeability (Papp B→A) at 60 min, 10 µM in [1] came out at 7.17 ± 0.27 ×10⁻⁶ cm/s; in [5], 3.09 ± 0.07 ×10⁻⁶ cm/s. The efflux ratio at 60 min, 10 µM in [1] was 3.67; in series [5] it was 7.37. In series [2], the “Fa (fraction absorbed in humans)” value is listed as 40%. The entries for the “Average Papp A–B” value in series [3] and in series [6] were 2.35 ± 0.88 × 10^–6 cm/s and 0.4 ± 0.1^a × 10^–6 cm/s, respectively. The “Average Papp A - B” value in [4] (ref Ayehunie et al. 2018) is 0.4 ×10⁻⁶ cm/s; in series [4] (ref Kabeya et al. 2020) it was 0.35 ×10⁻⁶ cm/s; in [4] (ref Liang et al. 2000) it was 0.51 ×10⁻⁶ cm/s; in series [4] (ref Yazdanian et al. 1998) it was 0.51 ×10⁻⁶ cm/s.

For the compound `CCOC(=O)[C@H](CCc1ccccc1)N[C@@H](C)C(=O)N1CCC[C@H]1C(=O)O` [Enalapril, enalapril], the apparent permeability from apical to basolateral (Papp A→B) at 60 min, 10 µM in series [1] was found to be 2.95 ± 0.41 ×10⁻⁶ cm/s; in [5] it was 0.28 ± 0.04 ×10⁻⁶ cm/s. Moreover, the Papp B→A at 60 min, 10 µM in series [1] was 3.68 ± 0.1 ×10⁻⁶ cm/s; in [5] it was 0.43 ± 0.05 ×10⁻⁶ cm/s. For the same compound, the efflux ratio at 60 min, 10 µM amounted to 1.25 in [1] and 1.55 in series [5]. Moreover, the “Fa (fraction absorbed in humans)” value in [2] was 40%. Besides, the “Average Papp A–B” value in series [3] was 1.93 ± 0.46 × 10^–6 cm/s; in [6], 0.4 ± 0.2^a × 10^–6 cm/s. Moreover, the “Average Papp A - B” value in series [4] (ref Ayehunie et al. 2018) was 0.2 ×10⁻⁶ cm/s; in series [4] (ref Grès et al. 1998), 0.62 ×10⁻⁶ cm/s; in series [4] (ref Kabeya et al. 2020), 0.19 ×10⁻⁶ cm/s; in [4] (ref Logoyda et al. 2018), 1.31 ×10⁻⁶ cm/s.

Consider `O=C(O)C(F)(OC(F)(F)C(F)(F)C(F)(F)F)C(F)(F)F` (centres unmarked) [HFPO-DA, hexafluoropropylene oxide dimer acid], for which, in [1], the apparent permeability from apical to basolateral (Papp A→B) at 60 min, 1 µM is 3.09 ± 0.09 ×10⁻⁶ cm/s; the Papp B→A at 60 min, 1 µM turned out to be 4.49 ± 0.27 ×10⁻⁶ cm/s; the efflux ratio at 60 min, 1 µM worked out at 1.45. In addition, in series [7], the apparent permeability from apical to basolateral (Papp A→B) at 60 min, 1 µM stood at 1.16 ± 0.19 ×10⁻⁶ cm/s; the apparent permeability from basolateral to apical (Papp B→A) at 60 min, 1 µM stood at 1.04 ± 0.09 ×10⁻⁶ cm/s; the efflux ratio at 60 min, 1 µM was determined as 0.9. Moreover, the “Transport (in words)” value in [8] is “no transport”. Moreover, in series [5], the Papp B→A at 60 min, 1 µM stood at 1.23 ± 0.25 ×10⁻⁶ cm/s.

Regarding lucifer yellow, the “Apical to basolateral transport of lucifer yellow” value in series [9] is recorded as “no quantifiable”.
